From US20190151308A1 (Otsuka Pharmaceutical Co., Ltd., priority 2002, published 2019) come the findings set out here.

Test [1] can be described thus: Augmentation therapy in major depressive disorder patients non-responsive or partially responsive to serotonin reuptake inhibitors. Particulars: 10 to 30 mg/day for 4 to 8 weeks, added to serotonin reuptake inhibitor therapy. It is filed as in vivo. On the procedure: Only patients with such Hamilton scores receive treatment. These patients are interviewed to obtain a complete medical and psychiatric history.
Only patients with such Hamilton scores receive treatment. These patients are interviewed to obtain a complete medical and psychiatric history. Dehydroaripiprazole is first administered at a dose of 10 mg/day and increased to 30 mg/day as needed in the opinion of the monitoring psychiatrist. Dehydroaripiprazole is administered to these patients at a dose of from 10 mg/day to 30 mg/day for a period of at least four weeks, and up to eight weeks for patients who respond well to this treatment during the first four weeks.

Test [2] is described as follows: Tail suspension test (TST). It is filed as in vivo, mice. The conditions noted are these: 3 mg/kg p.o. of each drug; for Immobility time (sec, mean ± SE): 60 min before suspension, 5-15 min period, N = 7-9; for % of shortening for immobility time: versus vehicle. The text has this: The tail suspension test (TST) was originally described by Steru et al. […] The antidepressant activity of a test drug can be detected as an index of shortening the immobility time. This test is widely used as to an experimental animal model for predicting the antidepressant activity of a test drug in clinical settings. An automated device for performing the TST was developed by the authors of the TST (1989).^2) We improved this device and developed our own device incorporating an electric balance, an A/D converter, a testing box (30×25×25 cm), and a personal computer. The mouse was suspended from a hook hanging from the ceiling in the testing box by adhesive tape applied 20 mm from the tip of the tail. The duration of immobility was measured by the computer for a period of 15 min following the start of suspension. […] The experiments were carried out in a sound-proof room.

For `O=C1CCc2ccc(OCCCCN3CCN(c4cccc(Cl)c4Cl)CC3)cc2N1` [Aripiprazole, 7-{4-[4-(2,3-Dichlorophenyl)-1-piperazinyl]-butoxy}-3,4-dihydrocarbostyril], the “symptoms of depression (Hamilton test, CGI, AIMS, SAS, Barnes)” value in test [1] is given as “improvement in alleviation of symptoms of depression”. Moreover, in test [2], the “Immobility time (sec, mean ± SE)” value was 486.4 ± 12.3 s and the “% of shortening for immobility time” value turned out to be 3%.
With `CN(C)CCCC1(c2ccc(F)cc2)OCc2cc(C#N)ccc21` (centres unmarked) [Citalopram, citalopram], in test [2], the “Immobility time (sec, mean ± SE)” value stood at 468.7 ± 24.2 s and the “% of shortening for immobility time” value is 6%.
